SMILES strings stand for the structures.

The record followed here is patent US12459951B2, “Compounds that interact with RAS superfamily proteins for treatment of cancers, inflammatory diseases, rasopathies, and fibrotic disease” (SHY Therapeutics, LLC, priority 2022, dated 2025).

One assay deals with T1, Rheb (Homo sapiens, UniProt Q15382).
T1 construct: made in house
Nature of the assay: Rheb GTP Binding Domain Inhibition Assay. Conditions: read-out: Rheb: % inh. The procedure:
Protocol for Cdc42 and Rheb GTP Binding Domain Inhibition Assay
The following method was developed as specific assay for cdc42 and Rheb proteins.
• 25 mM Tris-HCl, pH 7.4 • 27 mM KCl • 137 mM NaCl • 1 mM MgCl2 • 1 mM DTT Buffer-II: • 50 mM Tris-HCl, pH 7.0 • 1 mM MgCl2 • 1 mM DTT
The small GTPases proteins cdc42 and Rheb were expressed as His-tagged proteins. For the assay, the cdc42 and Rheb purified small GTPases proteins were diluted in Buffer-I or Buffer-II to a final concentration of 10-30 μg/mL. 200 μL of each diluted protein was added to a nickel-coated 96-well plate and incubated overnight at […]. Then the protein solution was discarded and 200 μL of Buffer-I or Buffer-II was added to each well in the presence of 1% DMSO. Compounds to be tested were added to the protein-coated wells at final concentration of 20 μM, and incubated for 3 hours at room temperature with and without 10-30 μg/mL of Sos added to the final hour of the incubation. When performing IC50 measurements a serial dilution of all tested concentrations was added. Then Cy3-GTP or Cy5-GTP was added to each well to a final concentration of 100 nM. The labeled GTP was incubated for 45 minutes at room temperature. Following GTP incubation, wells were washed 3× in Buffer-I or Buffer-II and 200 μL of Buffer-I or Buffer-II was added to each well. Following washes, the amount of bound labeled-GTP was measured using a SpectraMax M3 (Molecular Devices).

In the next assay the test system is active/cleaved caspase 9. Nature of the assay: Cell-based caspase activation assay (western blot). Further details: species or system human. The procedure: (§1) Biological Example 4: Puma Expression and Caspases Activation Assay
(§2) Protocols for Cell-Based Puma Expression and Caspase Activation Assays
(§3) Cell lines: All human tumor-derived cancer cell lines were purchased from American Type Culture Collection. Human tumor-derived cancer cell lines Panc-1 (expressing KRas G12D mutant), MiaPaca-2 (expressing KRas G12C mutant), A549 (expressing KRas G12S mutant), and A375 (expressing wild type KRas) were grown in complete DMEM-High Glucose medium and NCI-H1975 (expressing wild type KRas), MM.1R (expressing wild type KRas) and IM.9 (expressing wild type KRas) were grown in RPMI1640 medium. Human tumor-derived cancer cell line BT-549 (expressing wild type KRas) was grown in RPMI1640 medium with 11.8U insulin. All mediums were supplemented with penicillin (100 U/mL), streptomycin (100 μg/mL), and 10% heat-inactivated FBS at 37° C. in a humidified incubator with 5% CO2.
(§4) Method: Cells were plated at 300,000 to 800,000 cells/well density in a 6-well plate in the presence of 10% FBS. The next day small molecules to be tested were added to the cells in the final concentration of 3 μM in the presence of 0.3% DMSO for 48 hours incubation at 37° C. For IC50 value determination, serial dilutions of compounds were added to cells under the same conditions. Following 48 hours of incubation cells were lysed with lysis buffer containing 1% Triton X-100, EDTA, and Halt™ Protease & Phosphatase Inhibitor Cocktail (Thermo Scientific). Protein concentration was assessed by BCA protein assay (Thermo Scientific). Increase expression of PUMA and active/cleaved forms of caspase 3, caspase 6 and caspase 9 were detected by western blot.
(§5) Western blot protocol: Equal amounts of protein (15-50 μg) were separated by SDS-PAGE and transferred to nitrocellulose membranes (Invitrogen by Thermo Fisher Scientific). The membrane was stained with Ponceau S Stain (Boston BioProducts) to verify uniform protein loading. Membranes were blocked with 10% milk and expression levels of PUMA was assessed by incubating overnight at 4° C. with the antibody PUMA (D30C10) from Cell Signaling Technology (#12450) and active/cleaved forms of caspase 3, caspase 6 and caspase 9 by incubating overnight at 4° C. with the following antibodies: cleaved caspase-3 (Asp175) (5A1E), cleaved caspase-6 (Asp162) and cleaved caspase-9 (Asp330) (D2D4) (all antibodies from Cell Signaling Technology). Then the membranes were incubated with HRP-conjugated secondary antibody (Jackson Immunoresearch, West Grove, PA). Bands were incubated in Amersham ECL Prime Western Blotting Detection Reagent (GE Healthcare) and visualized using the ChemiDoc MP imaging system (Bio-Rad).
(In general: A western blot detects proteins with antibodies after separation by electrophoresis.)

Another assay deals with active/cleaved caspase 3. Nature of the assay: Cell-based caspase activation assay (western blot). On the set-up: species or system human. The method, then: as §1, §2, §3, §4, §5
The next assay concerns active/cleaved caspase 6. Nature of the assay: Cell-based caspase activation assay (western blot). On the set-up: species or system human. The procedure:
as §1, §2, §3, §4, §5

A further assay deals with PUMA expression. Description: Cell-based Puma expression assay (western blot). Further details: species or system human. The procedure: as §1, §2, §3, §4, §5

T1 sequence (Q15382 whole entry): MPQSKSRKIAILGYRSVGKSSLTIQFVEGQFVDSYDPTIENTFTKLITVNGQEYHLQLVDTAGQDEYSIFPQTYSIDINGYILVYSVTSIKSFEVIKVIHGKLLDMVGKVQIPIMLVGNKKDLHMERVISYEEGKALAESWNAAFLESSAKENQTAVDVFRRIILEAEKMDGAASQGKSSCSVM

Regarding `COc1ccnc(Nc2nc(-c3nccn3C)nn3cc(-c4ccn(C(F)F)n4)c(C)c23)n1` [Compound 95, 6-(1-(Difluoromethyl)-1H-pyrazol-3-yl)-N-(4-methoxypyrimidin-2-yl)-5-methyl-2-(1-methyl-1H-imidazol-2-yl)pyrrolo[2,1-f][1,2,4]triazin-4-amine], at Rheb, the inhibition at 20 µM lay in the range of 50 to 75%.

As to `COc1cc(Nc2nc(-c3nccn3C)nn3cc(-c4ccn(C(C)C)n4)c(C)c23)ncn1` [Compound 6, 6-(1-Isopropyl-1H-pyrazol-3-yl)-N-(6-methoxypyrimidin-4-yl)-5-methyl-2-(1-methyl-1H-imidazol-2-yl)pyrrolo[2,1-f][1,2,4]triazin-4-amine], the “Caspase 9 activation” value is “yes” in the assay on active/cleaved caspase 9 (A375, after 48 hours); “yes” with active/cleaved caspase 9 (A549, after 48 hours); “yes” in the assay on active/cleaved caspase 9 (BT-549, after 48 hours); “yes” in the assay on active/cleaved caspase 9 (MiaPaca2, after 48 hours). Also, the “Caspase 3 activation” value is given as “yes” with active/cleaved caspase 3 (A375, after 48 hours); “yes” in the assay on active/cleaved caspase 3 (A549, after 48 hours); “yes” in the assay with active/cleaved caspase 3 (BT-549, after 48 hours); “yes” in the assay on active/cleaved caspase 3 (MiaPaca2, after 48 hours); “yes” in the assay on active/cleaved caspase 3 (Panc-1, after 48 hours). In addition, the “Caspase 6 activation” value in the assay with active/cleaved caspase 6 (A375, after 48 hours) is listed as “yes”; with active/cleaved caspase 6 (A549, after 48 hours), “yes”; in the assay with active/cleaved caspase 6 (BT-549, after 48 hours), “yes”; with active/cleaved caspase 6 (MiaPaca2, after 48 hours), “yes”; in the assay with active/cleaved caspase 6 (Panc-1, after 48 hours), “yes”. Further, the “Increased PUMA expression” value with PUMA expression (A549, after 48 hours) is recorded as “yes”; in the assay with PUMA expression (BT-549, after 48 hours), “yes”; with PUMA expression (MiaPaca2, after 48 hours), “yes”. In addition, at Rheb, the inhibition at 20 µM lay within 76 to 100%.

In the case of `Cc1c(-c2ccn(C(C)C)n2)cn2nc(-c3nccn3C)nc(Nc3nccn3C)c12` [Compound 93, 6-(1-Isopropyl-1H-pyrazol-3-yl)-5-methyl-N,2-bis(1-methyl-1H-imidazol-2-yl)pyrrolo[2,1-f][1,2,4]triazin-4-amine], the inhibition at 20 µM on Rheb lay within 76 to 100%.

With `COc1cc(Nc2nc(-c3nccn3C)nn3cc(-c4ccccn4)c(C)c23)ncn1` [Compound 94, N-(6-Methoxypyrimidin-4-yl)-5-methyl-2-(1-methyl-1H-imidazol-2-yl)-6-(pyridin-2-yl)pyrrolo[2,1-f][1,2,4]triazin-4-amine], at Rheb, the inhibition at 20 µM fell in the range of 26 to 49%.

As to `Cc1c(-c2ccn(C)n2)cn2nc(-c3nccn3C)nc(Nc3cc4n(n3)CCO4)c12` [Compound 124, N-(5-Methyl-2-(1-methyl-1H-imidazol-2-yl)-6-(1-methyl-1H-pyrazol-3-yl)pyrrolo[2,1-f][1,2,4]triazin-4-yl)-2,3-dihydropyrazolo[5,1-b]oxazol-6-amine], the “Caspase 9 activation” value in the assay on active/cleaved caspase 9 (A375, after 48 hours) is on record as “yes”; in the assay on active/cleaved caspase 9 (BT-549, after 48 hours) it was “yes”; with active/cleaved caspase 9 (MiaPaca2, after 48 hours), “yes”. Further, the “Caspase 3 activation” value in the assay on active/cleaved caspase 3 (A375, after 48 hours) was “yes”; with active/cleaved caspase 3 (BT-549, after 48 hours) it was “yes”; in the assay on active/cleaved caspase 3 (HCC1806, after 48 hours) it was “yes”; with active/cleaved caspase 3 (MiaPaca2, after 48 hours), “yes”; in the assay with active/cleaved caspase 3 (NCI-H358, after 48 hours), “yes”. Also, the “Caspase 6 activation” value is listed as “yes” in the assay with active/cleaved caspase 6 (A375, after 48 hours); “yes” in the assay with active/cleaved caspase 6 (BT-549, after 48 hours); “yes” in the assay with active/cleaved caspase 6 (HCC1806, after 48 hours); “yes” in the assay with active/cleaved caspase 6 (MiaPaca2, after 48 hours); “yes” in the assay on active/cleaved caspase 6 (NCI-H358, after 48 hours). The “Increased PUMA expression” value with PUMA expression (HCC1806, after 48 hours) is “yes”; with PUMA expression (MiaPaca2, after 48 hours), “yes”; in the assay with PUMA expression (NCI-H358, after 48 hours) it was “yes”.

Consider `COc1ccnc(Nc2nc(-c3nccn3C)nn3cc(-c4ccn(C)n4)c(C)c23)c1` [Compound 102, N-(4-Methoxypyridin-2-yl)-5-methyl-2-(1-methyl-1H-imidazol-2-yl)-6-(1-methyl-1H-pyrazol-3-yl)pyrrolo[2,1-f][1,2,4]triazin-4-amine], for which the “Caspase 9 activation” value in the assay on active/cleaved caspase 9 (A375, after 48 hours) is listed as “yes”; in the assay with active/cleaved caspase 9 (A549, after 48 hours), “yes”; with active/cleaved caspase 9 (IM.9, after 48 hours), “yes”; in the assay with active/cleaved caspase 9 (MM.1R, after 48 hours), “yes”; in the assay with active/cleaved caspase 9 (MiaPaca2, after 48 hours) it was “yes”; in the assay with active/cleaved caspase 9 (NCI-H1975, after 48 hours), “yes”. The “Caspase 3 activation” value is on record as “yes” in the assay with active/cleaved caspase 3 (A375, after 48 hours); “yes” with active/cleaved caspase 3 (A549, after 48 hours); “yes” in the assay with active/cleaved caspase 3 (IM.9, after 48 hours); “yes” in the assay on active/cleaved caspase 3 (MM.1R, after 48 hours); “yes” in the assay with active/cleaved caspase 3 (MiaPaca2, after 48 hours); “yes” in the assay with active/cleaved caspase 3 (NCI-H1975, after 48 hours). In addition, the “Caspase 6 activation” value in the assay on active/cleaved caspase 6 (A375, after 48 hours) is reported as “yes”; in the assay on active/cleaved caspase 6 (A549, after 48 hours), “yes”; in the assay on active/cleaved caspase 6 (IM.9, after 48 hours), “yes”; with active/cleaved caspase 6 (MM.1R, after 48 hours), “yes”; in the assay on active/cleaved caspase 6 (MiaPaca2, after 48 hours), “yes”; with active/cleaved caspase 6 (NCI-H1975, after 48 hours), “yes”. In addition, the “Increased PUMA expression” value with PUMA expression (A549, after 48 hours) is given as “yes”; in the assay with PUMA expression (MiaPaca2, after 48 hours), “yes”.
